pIC50: −log10 of the molar value.
Target: T1, human GnRH receptor (Homo sapiens, UniProt P30968)
T1 sequence (P30968 1-328): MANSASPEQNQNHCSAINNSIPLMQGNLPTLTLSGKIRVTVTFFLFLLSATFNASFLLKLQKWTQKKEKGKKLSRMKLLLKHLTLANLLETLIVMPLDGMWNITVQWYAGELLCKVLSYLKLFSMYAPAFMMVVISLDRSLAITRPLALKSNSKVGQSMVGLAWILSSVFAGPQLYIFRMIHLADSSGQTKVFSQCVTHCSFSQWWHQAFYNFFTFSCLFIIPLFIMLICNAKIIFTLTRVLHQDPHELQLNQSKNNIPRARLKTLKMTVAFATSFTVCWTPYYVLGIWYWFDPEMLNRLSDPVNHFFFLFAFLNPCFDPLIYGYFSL
Assay: IP-One HTRF assay with buserelin (at EC80) stimulation
Type: cell-based
Settings: CHO cells stably expressing human GnRH receptor, read-out: Potency in IP-One HTRF assay, given as IC50
Excerpt: 2.3. IP-One HTRF® Assay By using homogenous time-resolved fluorescence resonance energy transfer (HTRF), the generation of one component of the GnRH—R signalling cascade can be measured. After stimulation of CHO cells stably expressing human GnRH receptor (established by Prof. Thomas Gudermann, currently University of Marburg, Germany; supplied as frozen cell aliquots by Cell Culture Services, Hamburg, Germany) with the EC80 of the GnRH agonist buserelin, Gq protein-coupled receptor signalling cascade is activated resulting in PLC-dependent cleavage of PIP2 to Inositol-1,4,5-triphosphate (IP3) and Diacylglycerol. The second messenger IP3 is degraded intracellularly to myo-inositol. Inhibition of the final degradation step from Inositol-1-phosphate (IP1) to myo-inositol by addition of lithium chloride leads to accumulation of IP1 in the cells. In cell lysates, IP1 can be detected via an antibody-based HTRF detection technology, where IP1 can displace the FRET acceptor IP1-d2 from binding by Terbium-labelled anti-IP1 antibody as donor resulting in a signal decrease. Compounds were tested for their capability of inhibiting GnRH—R activation by buserelin. For all IP-One HTRF® assays reagents of Cisbio Bioassays (IP-One Tb Jumbo kit, #62IPAPEJ; Cisbio Bioassays, Bagnols sur Cèze Cedex, France) were used.
For the assay, frozen cell aliquots were thawed and a cell suspension (3.33×10^6 cells/mL) containing IP1-d2 (dilution 1:40) was prepared and incubated at 37° C. After 1 h 3 μl of the cell suspension were added to 50 nl of a 100-fold concentrated solution of the test compound in DMSO pre-dispensed in a well of a white low-volume 384-well microtiter plate (Greiner Bio-One, Frickenhausen, Germany). […] Plates were incubated for 1 h at 37° C. and 5% carbon dioxide before the cells were lysed by adding 3 μl Terbium-labelled anti-IP1 antibody (1:40) diluted in Conjugate & Lysis buffer as supplied with the kit. After an incubation for 1 h at 22° C. to enable complete cell lysis and antibody binding to free IP1 or IP1-d2, plates were measured in an HTRF reader, e.g. a RUBYstar, PHERAstar (both BMG Labtechnologies, Offenburg, Germany) or a Viewlux (PerkinElmer LAS, Rodgau-Jügesheim, Germany).
From the fluorescence emissions at 665 nm (FRET) and at 620 nm (background signal of Terbium-antibody), the ratio (emission at 665 nm divided by emission at 620 nm) was calculated and the data were normalized (reaction without test compound=0% inhibition; all other assay components except agonist=100% inhibition). On the same microtiter plate, compounds were tested at 10 different concentrations in the range of 20 μM to 1 nM (20 μM, 6.7 μM, 2.2 μM, 0.74 μM, 0.25 μM, 82 nM, 27 nM, 9.2 nM, 3.1 nM and 1 nM; dilution series prepared before the assay at the level of the 100-fold conc. stock solutions by serial 1:3 dilutions in 100% DMSO) in duplicate values for each concentration. By using an in-house software, the IC50 values were calculated by a 4 parameter fit.

Compound	pIC50
CC1N(S(=O)(=O)c2ccc(F)cc2)c2ccc(C(=O)NCc3ncc(F)cc3Cl)cc2C12CCS(=O)(=O)CC2 (stereo not drawn) [Example 28, N-[(3-chloro-5-fluoropyridin-2-yl)methyl]-1-[(4-fluorophenyl)sulfonyl]-2-methyl-1,2,2′,3′,5′,6′-hexahydrospiro[indole-3,4′-thiopyran]-5-carboxamide 1′,1′-dioxide]	6.39
CN1CCCC1=NS(=O)(=O)c1cccc(NC(=O)c2ccc3c(c2)C2(CCS(=O)(=O)CC2)C(C2CC2)N3S(=O)(=O)c2ccc(C(N)=O)cc2)c1 (stereo not drawn) [Example 95, 1-[(4-carbamoylphenyl)sulfonyl]-2-cyclopropyl-N-{3-[(1-methylpyrrolidin-2-ylidene)sulfamoyl]phenyl}-1,2,2′,3′,5′,6′-hexahydrospiro[indole-3,4′-thiopyran]-5-carboxamide 1′,1′-dioxide]	6.65
N#Cc1cccc(S(=O)(=O)N2c3ccc(C(=O)Nc4cncc(Cl)c4)cc3C3(CCS(=O)(=O)CC3)C2C2CC2)c1 (single isomer, unassigned) [Example 77.1, N-(5-chloropyridin-3-yl)-1-[(3-cyanophenyl)sulfonyl]-2-cyclopropyl-1,2,2′,3′,5′,6′-hexahydrospiro[indole-3,4′-thiopyran]-5-carboxamide 1′,1′-dioxide]	7.27
COc1cccc(S(=O)(=O)N2c3ccc(C(=O)NCc4ccccc4C(F)(F)F)cc3C3(CCS(=O)(=O)CC3)C2C2CC2)c1 (single isomer, unassigned) [Example 40.2, 2-cyclopropyl-1-[(3-methoxyphenyl)sulfonyl]-N-[2-(trifluoromethyl)benzyl]-1,2,2′,3′,5′,6′-hexahydrospiro[indole-3,4′-thiopyran]-5-carboxamide 1′,1′-dioxide]	6.20
CC1N(S(=O)(=O)c2ccc(F)cc2)c2ccc(C(=O)NCc3ccccn3)cc2C12CCOCC2 (stereo not drawn) [Example 6, 1-[(4-fluorophenyl)sulfonyl]-2-methyl-N-(2-pyridylmethyl)-1,2,2′,3′,5′,6′-hexahydrospiro[indole-3,4′-pyran]-5-carboxamide]	5.17
O=C(NCc1ccccc1Cl)c1ccc2c(c1)C1(CC[S+]([O-])CC1)C(C1CC1)N2S(=O)(=O)c1ccc(F)cc1 (stereo not drawn) [Example 13, N-(2-Chlorobenzyl)-2-cyclopropyl-1-[(4-fluorophenyl)sulfonyl]-1,2,2′,3′,5′,6′-hexahydrospiro[indole-3,4′-thiopyran]-5-carboxamide 1′-oxide]	7.52
C=CCC1N(S(=O)(=O)c2cccc(C(=O)O)c2)c2ccc(C(=O)NCc3ccccc3Cl)cc2C12CCS(=O)(=O)CC2 (stereo not drawn) [Example 56, 3-({5-[(2-chlorobenzyl)carbamoyl]-1′,1′-dioxido-2-(prop-2-en-1-yl)-2′,3′,5′,6′-tetrahydrospiro[indole-3,4′-thiopyran]-1(2H)-yl}sulfonyl)benzoic acid]	6.87
COC(=O)c1cccc(NC(=O)c2ccc3c(c2)C2(CCS(=O)(=O)CC2)C(C2CC2)N3S(=O)(=O)c2cccc(OC(F)F)c2)c1 (stereo not drawn) [Example 89, methyl 3-{[(2-cyclopropyl-1-{[3-(difluoromethoxy)phenyl]sulfonyl}-1′,1′-dioxido-1,2,2′,3′,5′,6′-hexahydrospiro[indole-3,4′-thiopyran]-5-yl)carbonyl]amino}benzoate]	6.87
COC(=O)c1cccc(NC(=O)c2ccc3c(c2)C2(CCS(=O)(=O)CC2)C(C2CC2)N3S(=O)(=O)c2cccc(OC(F)F)c2)c1 (single isomer, unassigned) [Example 89.1, methyl 3-{[(2-cyclopropyl-1-{[3-(difluoromethoxy)phenyl]sulfonyl}-1′,1′-dioxido-1,2,2′,3′,5′,6′-hexahydrospiro[indole-3,4′-thiopyran]-5-yl)carbonyl]amino}benzoate]	7.20
O=C(NCCc1ccccc1Cl)c1ccc2c(c1)C1(CCS(=O)(=O)CC1)C(C1CC1)N2S(=O)(=O)c1ccc(F)cc1 (stereo not drawn) [Example 25, N-[2-(2-chlorophenyl)ethyl]-2-cyclopropyl-1-[(4-fluorophenyl)sulfonyl]-1,2,2′,3′,5′,6′-hexahydrospiro[indole-3,4′-thiopyran]-5-carboxamide 1′,1′-dioxide]	5.58
COC(=O)c1cccc(NC(=O)c2ccc3c(c2)C2(CCS(=O)(=O)CC2)C(C2CC2)N3S(=O)(=O)c2ccc(F)cc2)c1 (single isomer, unassigned) [Example 34.1, methyl 3-[({2-cyclopropyl-1-[(4-fluorophenyl)sulfonyl]-1′,1′-dioxido-1,2,2′,3′,5′,6′-hexahydrospiro[indole-3,4′-thiopyran]-5-yl}carbonyl)amino]benzoate]	7.42
O=C(Nc1ccc2c(c1)C1(CCS(=O)(=O)CC1)C(C1CC1)N2S(=O)(=O)c1ccc(F)cc1)C1CCCCC1 (stereo not drawn) [Example 98, N-{2-cyclopropyl-1-[(4-fluorophenyl)sulfonyl]-1′,1′-dioxido-1,2,2′,3′,5′,6′-hexahydrospiro[indole-3,4′-thiopyran]-5-yl}cyclohexanecarboxamide]	7.41
O=C(O)c1cccc(S(=O)(=O)N2c3ccc(C(=O)NCc4ccccc4Cl)cc3C3(CCS(=O)(=O)CC3)C2C2CC2)c1 (single isomer, unassigned) [Example 61.2, 3-({5-[(2-chlorobenzyl)carbamoyl]-2-cyclopropyl-1′,1′-dioxido-2′,3′,5′,6′-tetrahydrospiro[indole-3,4′-thiopyran]-1(2H)-yl}sulfonyl)benzoic acid]	5.70
O=C(Nc1ccc2c(c1)C1(CCS(=O)(=O)CC1)C(C1CC1)N2S(=O)(=O)c1ccc(F)cc1)C1CCCC1 (stereo not drawn) [Example 99, N-{2-cyclopropyl-1-[(4-fluorophenyl)sulfonyl]-1′,1′-dioxido-1,2,2′,3′,5′,6′-hexahydrospiro[indole-3,4′-thiopyran]-5-yl}cyclopentanecarboxamide]	6.52
COc1cccc(S(=O)(=O)N2c3ccc(C(=O)NCc4ccccc4Cl)cc3C3(CCS(=O)(=O)CC3)C2C2CC2)c1 (stereo not drawn) [Example 44, N-(2-chlorobenzyl)-2-cyclopropyl-1-[(3-methoxyphenyl)sulfonyl]-1,2,2′,3′,5′,6′-hexahydrospiro[indole-3,4′-thiopyran]-5-carboxamide 1′,1′-dioxide]	7.51
N#Cc1cccc(S(=O)(=O)N2c3ccc(C(=O)Nc4ccon4)cc3C3(CCS(=O)(=O)CC3)C2C2CC2)c1 (single isomer, unassigned) [Example 80.2, 1-[(3-cyanophenyl)sulfonyl]-2-cyclopropyl-N-(1,2-oxazol-3-yl)-1,2,2′,3′,5′,6′-hexahydrospiro[indole-3,4′-thiopyran]-5-carboxamide 1′,1′-dioxide]	< 4.70
COc1cccc(S(=O)(=O)N2c3ccc(C(=O)Nc4cccc(S(N)(=O)=O)c4)cc3C3(CCS(=O)(=O)CC3)C2C2CC2)c1 (stereo not drawn) [Example 42, 2-cyclopropyl-1-[(3-methoxyphenyl)sulfonyl]-N-(3-sulfamoylphenyl)-1,2,2′,3′,5′,6′-hexahydrospiro[indole-3,4′-thiopyran]-5-carboxamide 1′,1′-dioxide]	7.02
CC1N(S(=O)(=O)c2ccc(F)cc2)c2ccc(C(=O)NCc3ccccc3S(C)(=O)=O)cc2C12CCOCC2 (stereo not drawn) [Example 9, 1-[(4-fluorophenyl)sulfonyl]-N-(2-mesylbenzyl)-2-methyl-1,2,2′,3′,5′,6′-hexahydrospiro[indole-3,4′-pyran]-5-carboxamide]	5.32

From US20140357655A1, “SPIROINDOLINE DERIVATIVES AS GONADOTROPIN- RELEASING HORMONE RECEPTOR ANTAGONISTS” (Bayer Intellectual Property GmbH, priority 2012, published 2014)
